Data reported in patent US8445461B2, “Pharmaceutical composition for meniere's disease” (Setsuko Takeda, priority 2007, dated 2013).

How the values were obtained:
[1] = tested on: animal model of experimental endolymphatic hydrops; assay: Reference Example 6: erythritol added polyvinylpyrrolidone, conditions of feces; type: in vivo, guinea pigs; details: erythritol 2.8 g/kg oral, alone or with PVP
Protocol: Guinea pigs (280 to 350 g of body weight, normal feces) received the surgical obliteration of the endolymphatic sac in the left ear to prepare an “animal model of experimental endolymphatic hydrops”. The surgery was performed as previously described in Non-patent Reference 8.
One month after, the animals orally received erythritol (2.8 g/kg) added polyvinylpyrrolidone (0.5 g/kg, about 7.1% by weight). […] The result is shown in FIG. 10 with comparing Group 4 in Example 2 (Animals were sacrificed 3 hours after the administration of erythritol 2.8 g/kg alone).

[2] = tested on: experimental endolymphatic hydrops; assay: Endolymphatic hydrops decompression effect: IR-L, IR-S and regression lines in the operated ear; type: in vivo, guinea pigs; details: for Regression line IR-S vs IR-L: Y-intercept / Regression line IR-S vs IR-L: slope: operated ears; for Regression line IR-S vs IR-L: Y-intercept / Regression line IR-S vs IR-L: slope / IR-L (%) increase ratio of the length of Reissner's membrane / IR-S (%) increase ratio of the cross-sectional area of the scala media: active agent 2.8 g/kg oral; for IR-L (%) increase ratio of the length of Reissner's membrane / IR-S (%) increase ratio of the cross-sectional area of the scala media: operated side
Protocol: The endolymphatic hydrops-decompression effect of saccharides or sugar alcohols was evaluated by assaying as below in triplicate. Firstly, guinea pigs received the surgical obliteration of the endolymphatic sac in the left ear to prepare “experimental model animals with endolymphatic hydrops”. The surgical obliteration of the endolymphatic sac was carried out by burning the extraskeletal portion in the endolymphatic sac with a bipolar electrocoagulator. An endolymphatic sac plays an important role in the absorption of endolymphatic fluid. The inhibition of absorption of endolymphatic fluid was caused by burning the endolymphatic sac to prepare an experimental endolymphatic hydrops. Those hydrops are progressively formed. The size of hydrops becomes constant 2 weeks to month after the surgery and maintained for several months. In detail, see Non-patent Reference 8 for the surgery.
After 1 month, they were divided into 3 groups: Group 2-1 (groups 1-6), 60 animals; Group 2-2 (groups 7-10), 40 animals; and Group 2-3 (groups 11-20), […]. The animals in Group 2-1 received saccharides or sugar alcohols alone (Reference Example 5). The animals in Group 2-2 orally received saccharides or sugar alcohols added polysaccharides. The animals in Group 2-3 received other combinations of saccharides or sugar alcohols added polysaccharides. Animals were sacrificed after the oral administration and the observation and the assessment the gastrointestinal condition, and observed the morphological change of the cochlea mainly in the operated side (left side), in particular of the endolymphatic hydrops decompression effect.
I were obtained left sides of the temporal bones immediately following fixation and kept them in 10% formalin solution for 10 days or more. They were decalcified with 5% trichloroacetic acid and dehydrated with alcohol in increasing concentration, then embedded in paraffin and celloidin. The prepared blocks were cut serially in the horizontal plane. The mid-modiolar sections were stained in hematoxylin and eosin and studied under a light microscope. For the quantitative assessment of changes of the endolymphatic space, the change ratios of the length of Reissner's membrane and the cross-sectional area of the scala media in each turn were measured from the mid-modiolar sections of the cochlea.
From these parameters, the increase ratios (%) of the length of Reissner's membrane (IR-L) and the cross-sectional area (%) of the scala media (IR-S) of a total of four turns were calculated according to the equation as described below:
The increase ratio of the length of Reissner's membrane (IR-L)=100×Σ(Lx−L*x)/ΣL*x (x: first, second, third and fourth turns)
The increase ratio of the cross-section area of the scala media (IR-S)=100×Σ(Sx−S*x)/ΣS*x (x: first, second, third and fourth turns)
Since almost no difference is shown in the regression lines of each group, it cannot be understood that there is the decompression effect of erythritol alone. When endolymphatic hydrops is formed, the cross-sectional area of scala media and the length of Reissner's membrane will increase. It can be assumed from FIG. 1 that there is statistically a primary correlation between both of them in the operated side in the control group. The regression lines are; IR-S (distilled water)=4.011+1.212*IR-L (distilled water); R2=0.987, IR-S (1 hour after)=5.409+1.1*IR-L (1 hour after); R2=0.903, IR-S (2 hours after)=1.125+0.992*IR-L (2 hours after); R2=0.98, IR-S (3 hours after)=2.407+1.309*IR-L (3 hours after); R2=0.974, IR-S (6 hours after)=7.36+1.147*IR-L (6 hours after); R2=0.895, IR-S (12 hours after)=8.089+1.152*IR-L (12 hours after); R2=0.918.
The difference of decompression effect on endolymphatic hydrops depending on dose of pectin added and time-course of the decompression effect can hardly determined by comparing and analyzing the average and standard deviation of IR-L and IR-S in the operated side in each groups. […]

[3] = tested on: guinea pigs; assay: Reference Example 7: erythritol or isosorbitol added jelly, conditions of feces and gastrointestinal tract; type: in vivo
Excerpt: As described hereinbefore, erythritol or isosorbitol as saccharides or sugar alcohols added jelly as a thickner were orally administered to 10 guinea pigs (280 to 350 g body weight) as shown in Table 41. The conditions of feces were observed.

[4] = alone or with additive, 3 hours after
[5] = alone or with additive, 6 hours after
[6] = alone or with additive, 12 hours after
[7] = alone or with additive, perfusion 3 hours after
[8] = alone or with additive, perfusion 6 hours after
[9] = alone or with additive, perfusion 12 hours after
[10] = agent 2.8 g/kg oral + Jelly 0.05 g/kg, 5 animals
[11] = agent 2.8 g/kg oral + Jelly 0.1 g/kg, 5 animals
[12] = agent 2.8 g/kg oral + Jelly 0.15 g/kg, 5 animals
[13] = agent 2.8 g/kg oral, no additive dosage (agent alone)

- Hardness of feces 0 (Muddy): number of animals [1]: 5
- Hardness of feces 1 (Soft): number of animals [1]: 0
- Hardness of feces 2 (Slightly soft): number of animals [1]: 0
- Hardness of feces 3 (Normal): number of animals [1]: 0
- Hardness of feces: Muddy (number of animals) [3, 10]: 5
- Hardness of feces: Normal (number of animals) [3, 10]: 0
- Hardness of feces: Slightly soft (number of animals) [3, 10]: 0
- Hardness of feces: Soft (number of animals) [3, 10]: 0
- Hardness of feces: Muddy (number of animals) [3, 11]: 5
- Hardness of feces: Normal (number of animals) [3, 11]: 0
- Hardness of feces: Slightly soft (number of animals) [3, 11]: 0
- Hardness of feces: Soft (number of animals) [3, 11]: 0
- Hardness of feces: Muddy (number of animals) [3, 12]: 5
- Hardness of feces: Normal (number of animals) [3, 12]: 0
- Hardness of feces: Slightly soft (number of animals) [3, 12]: 0
- Hardness of feces: Soft (number of animals) [3, 12]: 0
- Hardness of feces: Muddy (number of animals) [3, 13]: 5
- Hardness of feces: Normal (number of animals) [3, 13]: 0
- Hardness of feces: Slightly soft (number of animals) [3, 13]: 0
- Hardness of feces: Soft (number of animals) [3, 13]: 0
SMILES: OC[C@@H](O)[C@@H](O)CO [Erythritol, erythritol]
- Difference of regression lines from control (ANCOVA test) ([2]; erythritol 2.8 g/kg alone, E1H to E12H groups (1 to 12 hours after)): no significant difference
- Regression line IR-S vs IR-L: Y-intercept [2, 4]: 2.407
- Regression line IR-S vs IR-L: slope [2, 4]: 1.309
- Regression line IR-S vs IR-L: Y-intercept [2, 5]: 7.36
- Regression line IR-S vs IR-L: slope [2, 5]: 1.147
- Regression line IR-S vs IR-L: Y-intercept [2, 6]: 8.089
- Regression line IR-S vs IR-L: slope [2, 6]: 1.152
- Regression line IR-S vs IR-L: Y-intercept ([2]; 1 hour after): 5.409
- Regression line IR-S vs IR-L: slope ([2]; 1 hour after): 1.1
- Regression line IR-S vs IR-L: Y-intercept ([2]; 2 hours after): 1.125
- Regression line IR-S vs IR-L: slope ([2]; 2 hours after): 0.992
- IR-L (%) increase ratio of the length of Reissner's membrane [2, 7]: 23.2 ± 16.9%
- IR-S (%) increase ratio of the cross-sectional area of the scala media [2, 7]: 32.7 ± 22.4%
- IR-L (%) increase ratio of the length of Reissner's membrane [2, 8]: 37.8 ± 24.8%
- IR-S (%) increase ratio of the cross-sectional area of the scala media [2, 8]: 51.4 ± 38.1%
- IR-L (%) increase ratio of the length of Reissner's membrane [2, 9]: 37.5 ± 18.7%
- IR-S (%) increase ratio of the cross-sectional area of the scala media [2, 9]: 51.4 ± 22.5%
- IR-L (%) increase ratio of the length of Reissner's membrane ([2]; perfusion 1 hour after): 24.2 ± 20.2%
- IR-S (%) increase ratio of the cross-sectional area of the scala media ([2]; perfusion 1 hour after): 32.1 ± 23.3%
- IR-L (%) increase ratio of the length of Reissner's membrane ([2]; perfusion 2 hours after): 29.4 ± 25.5%
- IR-S (%) increase ratio of the cross-sectional area of the scala media ([2]; perfusion 2 hours after): 30.2 ± 26.3%
